Measurements as given in ChEMBL document CHEMBL1944529, “Structure-based design, synthesis and structure-activity relationships of dibenzosuberyl- and benzoate-substituted tropines as ligands for acetylcholine-binding protein” (Bioorg Med Chem Lett, 2012).

What was measured:
[1] = biological target: T1, Soluble acetylcholine receptor (Aplysia californica, UniProt Q8WSF8); assay: Displacement of [3H]epibatidine from Aplysia californica acetylcholine binding protein expressed using baculoviral system after 1.5 hrs by scintillation counting
T1 sequence (Q8WSF8 whole entry): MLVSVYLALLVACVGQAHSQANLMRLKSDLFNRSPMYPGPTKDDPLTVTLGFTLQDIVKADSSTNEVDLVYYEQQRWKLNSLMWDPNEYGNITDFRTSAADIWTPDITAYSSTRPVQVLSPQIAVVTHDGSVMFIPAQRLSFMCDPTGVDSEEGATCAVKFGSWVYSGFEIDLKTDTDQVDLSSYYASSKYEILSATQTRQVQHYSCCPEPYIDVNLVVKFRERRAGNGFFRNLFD

[2] = biological target: Acetylcholine-binding protein (Lymnaea stagnalis, UniProt P58154); assay: Displacement of [3H]epibatidine from Lymnaea stagnalis acetylcholine binding protein expressed using baculoviral system after 1.5 hrs by scintillation counting
[3] = biological target: Neuronal acetylcholine receptor; alpha4/beta2 (Homo sapiens, UniProt P17787+P43681); assay: Displacement of [3H]epibatidine from human nAChR alpha4beta2 receptor expressed in human HEK293T cells by scintillation counting; assay type: cell-based, HEK-293T
[4] = biological target: Neuronal acetylcholine receptor subunit alpha-7 (Homo sapiens, UniProt P36544); assay: Displacement of [3H]MLA from nAChR alpha7 receptor in human SH-SY5Y cells by scintillation counting; assay type: cell-based
Sequence of Neuronal acetylcholine receptor subunit alpha-7 (P36544 whole entry): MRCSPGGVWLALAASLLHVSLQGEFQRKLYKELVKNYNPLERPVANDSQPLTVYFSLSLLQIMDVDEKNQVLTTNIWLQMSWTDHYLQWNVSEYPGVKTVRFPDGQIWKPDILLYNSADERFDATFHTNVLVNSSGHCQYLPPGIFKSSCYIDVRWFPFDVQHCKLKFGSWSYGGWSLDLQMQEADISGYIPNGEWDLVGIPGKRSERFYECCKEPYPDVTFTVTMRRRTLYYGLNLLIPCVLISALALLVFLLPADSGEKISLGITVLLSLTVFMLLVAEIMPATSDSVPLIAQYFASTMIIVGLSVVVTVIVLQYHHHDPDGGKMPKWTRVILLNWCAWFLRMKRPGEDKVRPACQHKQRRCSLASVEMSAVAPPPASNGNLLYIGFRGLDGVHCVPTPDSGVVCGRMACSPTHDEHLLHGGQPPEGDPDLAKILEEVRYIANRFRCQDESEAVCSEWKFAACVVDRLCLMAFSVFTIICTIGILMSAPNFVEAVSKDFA

Sequence of Acetylcholine-binding protein (P58154 whole entry): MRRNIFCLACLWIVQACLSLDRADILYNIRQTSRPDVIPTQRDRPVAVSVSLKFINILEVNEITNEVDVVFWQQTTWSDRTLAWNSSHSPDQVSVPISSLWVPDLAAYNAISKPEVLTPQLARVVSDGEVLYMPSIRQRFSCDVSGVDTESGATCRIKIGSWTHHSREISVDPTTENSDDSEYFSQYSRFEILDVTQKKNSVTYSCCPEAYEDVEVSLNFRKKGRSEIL
Sequence of Neuronal acetylcholine receptor; alpha4/beta2 (P17787 whole entry): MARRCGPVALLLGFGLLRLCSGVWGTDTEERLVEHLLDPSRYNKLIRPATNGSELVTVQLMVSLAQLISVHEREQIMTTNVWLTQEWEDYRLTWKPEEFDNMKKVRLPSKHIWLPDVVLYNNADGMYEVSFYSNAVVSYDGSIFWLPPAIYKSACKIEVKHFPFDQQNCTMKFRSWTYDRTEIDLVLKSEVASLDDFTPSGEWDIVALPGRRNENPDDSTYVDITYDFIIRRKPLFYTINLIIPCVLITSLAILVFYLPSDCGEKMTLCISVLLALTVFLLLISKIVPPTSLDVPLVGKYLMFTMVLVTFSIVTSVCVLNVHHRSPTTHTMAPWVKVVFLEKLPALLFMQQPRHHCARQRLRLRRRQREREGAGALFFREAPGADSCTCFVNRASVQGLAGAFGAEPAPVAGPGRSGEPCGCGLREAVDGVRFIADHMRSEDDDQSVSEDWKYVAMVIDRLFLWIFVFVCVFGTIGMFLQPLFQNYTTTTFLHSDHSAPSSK
Sequence of Neuronal acetylcholine receptor; alpha4/beta2 (P43681 whole entry): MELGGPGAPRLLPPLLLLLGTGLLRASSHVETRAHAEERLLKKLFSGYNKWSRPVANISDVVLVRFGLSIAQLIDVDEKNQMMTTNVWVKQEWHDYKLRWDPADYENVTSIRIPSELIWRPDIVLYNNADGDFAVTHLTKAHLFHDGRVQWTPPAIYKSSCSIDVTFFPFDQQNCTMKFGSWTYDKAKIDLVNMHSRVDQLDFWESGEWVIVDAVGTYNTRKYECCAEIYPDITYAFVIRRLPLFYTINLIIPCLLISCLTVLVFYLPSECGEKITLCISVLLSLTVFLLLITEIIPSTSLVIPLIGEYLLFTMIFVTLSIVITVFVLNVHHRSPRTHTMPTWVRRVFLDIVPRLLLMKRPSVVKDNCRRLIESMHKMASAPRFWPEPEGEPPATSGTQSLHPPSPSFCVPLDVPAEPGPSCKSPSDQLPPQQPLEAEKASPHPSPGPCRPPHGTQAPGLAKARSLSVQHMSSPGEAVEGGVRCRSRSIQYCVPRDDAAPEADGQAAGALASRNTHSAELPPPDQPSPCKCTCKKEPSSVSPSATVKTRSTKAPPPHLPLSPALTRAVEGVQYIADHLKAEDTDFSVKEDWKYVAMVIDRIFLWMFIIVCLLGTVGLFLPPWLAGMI

| SMILES | Ki [1] [nM] | Ki [2] [nM] | Ki [3] [nM] | Ki [4] [nM] |
| --- | --- | --- | --- | --- |
| O=C(O[C@H]1C[C@H]2CC[C@@H](C1)N2C[C@H](O)c1ccccc1)c1ccccc1 | 100 | 794 | – | – |
| O=C(O[C@H]1C[C@H]2CC[C@@H](C1)N2CCc1cccc(O)c1)c1ccccc1 | 200 | 100 | > 31600 | 12600 |
| CN1CCC[C@H]1c1cccnc1 [NICOTINE] | 2510 | – | – | – |
| c1ccc(CN2[C@@H]3CC[C@H]2C[C@@H](OC2c4ccccc4CCc4ccccc42)C3)cc1 | 10000 | 251 | – | – |
| C[N+]1(CC(O)c2ccccc2)[C@@H]2CC[C@H]1C[C@@H](OC(=O)c1ccccc1)C2 (stereo partly drawn) | 2000 | 126 | > 31600 | 10000 |
| c1ccc(CCN2[C@@H]3CC[C@H]2C[C@@H](OC2c4ccccc4CCc4ccccc42)C3)cc1 | 10000 | 100 | > 31600 | 12600 |
| O=C(O[C@@H]1C[C@H]2CC[C@@H](C1)N2CCc1ccccc1)c1ccccc1 | 1000 | 398 | > 31600 | 5010 |
| OC(CN1[C@@H]2CC[C@H]1C[C@@H](OC1c3ccccc3CCc3ccccc31)C2)c1ccccc1 (mixture of isomers) | 12600 | 2000 | > 31600 | 20000 |
| CN1[C@@H](CC(=O)c2ccccc2)CCC[C@H]1C[C@H](O)c1ccccc1 [LOBELINE] | 2.51 | – | – | 7940 |
| O=C(O[C@H]1C[C@H]2CC[C@@H](C1)N2CCc1ccccc1)c1ccccc1 | 31.6 | 79.4 | > 31600 | 7940 |
| CN1[C@@H]2CC[C@H]1C[C@H](OC(=O)c1ccccc1)C2 | 15800 | 6310 | – | – |
| O=C(O[C@@H]1C[C@H]2CC[C@@H](C1)N2)c1ccccc1 | 15800 | 7940 | – | – |
| c1ccc2c(c1)CCc1ccccc1C2O[C@H]1C[C@H]2CC[C@@H](C1)N2 | 10000 | 1000 | – | – |
| Oc1cccc(C(O)CN2[C@@H]3CC[C@H]2C[C@@H](OC2c4ccccc4CCc4ccccc42)C3)c1 (mixture of isomers) | 31600 | 2000 | > 31600 | 39800 |
| O=C(O[C@H]1C[C@H]2CC[C@@H](C1)N2C[C@@H](O)c1ccccc1)c1ccccc1 | 794 | 1260 | – | – |
| C[N+]1(C[C@H](O)c2ccccc2)[C@@H]2CC[C@H]1C[C@@H](OC(=O)c1ccccc1)C2 (stereo partly drawn) | 794 | 126 | – | – |
| O=C(O[C@H]1C[C@H]2CC[C@@H](C1)N2CC(O)c1cccc(O)c1)c1ccccc1 (stereo partly drawn) | 631 | 794 | > 31600 | 25100 |
| O=C(O[C@H]1C[C@H]2CC[C@@H](C1)N2)c1ccccc1 | 5010 | 794 | > 31600 | 3160 |
| O=C(O[C@H]1C[C@H]2CC[C@@H](C1)N2CC(O)c1cc(O)cc(O)c1)c1ccccc1 (stereo partly drawn) | 7940 | 398 | > 31600 | 15800 |
| O=C(O[C@@H]1C[C@H]2CC[C@@H](C1)N2CC(O)c1cc(O)cc(O)c1)c1ccccc1 (stereo partly drawn) | 20000 | 2000 | > 31600 | 12600 |
| CN1[C@@H]2CC[C@H]1C[C@@H](OC(=O)c1ccccc1)C2 [BENZOYL TROPINE] | 3980 | 2000 | > 31600 | 15800 |
| C[N+]1(CCc2ccccc2)[C@@H]2CC[C@H]1C[C@@H](OC1c3ccccc3CCc3ccccc31)C2 (stereo partly drawn) | 631 | 39.8 | > 31600 | 1580 |
| C[N+]1(C)[C@@H]2CC[C@H]1C[C@@H](OC1c3ccccc3CCc3ccccc31)C2 | 1000 | 316 | > 31600 | 1000 |
| O=C(O[C@H]1C[C@H]2CC[C@@H](C1)N2CC(O)c1ccccc1)c1ccccc1 (mixture of isomers) | 158 | 631 | > 31600 | 12600 |
| C[N+]1(CCc2ccccc2)[C@@H]2CC[C@H]1C[C@@H](OC(=O)c1ccccc1)C2 (stereo partly drawn) | 158 | 31.6 | > 31600 | 6310 |
| CN1[C@@H]2CC[C@H]1C[C@@H](OC1c3ccccc3CCc3ccccc31)C2 [DEPTROPINE] | 6310 | 2000 | – | – |
